Values of other authors, collected in patent US8697043B1, “Odor suppression of volatile organic analgesic compounds and method of use” (Chattem, Inc., priority 2013, dated 2014).

Experiments:
[1] = at 25° C.

Vapor pressure [1] [kPa] | Compound | Solubility in water
8.5 | CC1CCC(C(C)C)C(O)C1 (centres unmarked) [Menthol] | neither menthol nor camphor are significantly soluble in water
86.7 | CC12CCC(CC1=O)C2(C)C (centres unmarked) [camphor] | neither menthol nor camphor are significantly soluble in water
5.9 | CCO [ethanol] | 
